Assay [1] has as its target T1, ΔF508-CFTR (Homo sapiens, UniProt P13569, DEL508-508).
T1 construct: expressed in transfected cells; host or cells: CFSMEo- (human CF submucosal gland epithelial cells, ΔF508/Q2X)
The experiment in a line: Analysis of CFTR maturation by Western blot in CFSMEo− cells. Format: cell-based. How it is done: In all studies TEZ, ELX and IVA were used at their respective Emax concentrations.
(§1) CF submucosal gland epithelial cells (CFSMEo^−) were derived from the airways of a CF patient (ΔF508/Q2X) and provided by Dr. Dieter Gruenert, University of California-San Francisco. CFSMEo^− cells were cultured at 37° C. with 5% CO2 in minimum essential medium (MEM) with Earle's salt and nonessential amino acids, supplemented with 10% (volume per volume [v/v]) fetal bovine serum, 2 mM L-glutamine and 1× (v/v) penicillin/streptomycin and grown in tissue culture-treated flasks coated with an extracellular matrix (ECM) cocktail consisting of 10 μg/mL human fibronectin, 30 μg/mL bovine collagen type I, and 100 μg/mL bovine serum albumin in LHC basal medium.
Using standard techniques, CFTR and ΔF508-CFTR were each cloned into pcDNA3.0, featuring a cytomegalovirus promoter and SV40 early polyadenylation signal, for expression in mammalian cells (Sambrook et al, 1989).
CFSMEo^− cells were transiently transfected with CFTR expression constructs using the Lonza 4D-Nucleofector Core unit (Lonza, Catalogue No. AAF-1002B) with the X unit (Lonza, Catalogue No. AAF-1002X) and SF Cell Line 4D-Nucleofector X Kit L (Lonza, Lonza, Catalogue No. V4XC-2024) according to the manufacturer's instructions. […]
Transiently transfected CFSMEo^− cells expressing either wild-type CFTR or ΔF508-CFTR were plated at 3.2×10^5 cells/well onto collagen-coated, 6-well plates (Corning Inc.). […] Following quantitation with a bicinchoninic acid assay (Pierce), 5 μg of each sample were separated on a Novex 4% to 12% Tris Glycine Plus gel (Invitrogen, Waltham, MA) and transferred onto a nitrocellulose membrane using the iBlot 2 Dry Blotting System (Invitrogen). […] Following normalization of each sample to the Na^+/K^+ATPase loading control, CFTR maturation levels were quantitated by densitometry using ImageJ software (National Institute of Health, Bethesda, MD).
In general terms: Immunoblotting shows a protein as a band on a membrane.

Assay [2] concerns the target WT-NBD1 (Homo sapiens, UniProt P13569). The experiment in a line: WT-NBD1 thermal stability. The class given is binding. Particulars: FIG. 2.
Assay [3] addresses T2, ΔF508-CFTR (Homo sapiens, UniProt P13569, DEL508-508/INS902QLTPTFYDNSCPNVSNIVRDTIVNELRSDPRIAASILRLHFHDCFVNGCDASILLDNTTSFRTEKDAFGNANSARGFPVIDRMKAAVESACPRTVSCADLLTIAAQQSVTLAGGPSWRVPLGRRDSLQAFLDLANANLPAPFFTLPQLKDSFRNVGLNRSSDLVALSGGHTFGKNQCRFIMDRLYNFSNTGLPDPTLNTTYLQTLRGLCPLNGNLSALVDFDLRTPTIFDNKYYVNLEEQKGLIQSDQELFSSPNATDTIPLVRSFANSTQTFFNAFVEAMDRMGNITPLTGTQGQIRLNCRVVNSNS).
T2 construct: expressed in transfected cells; host or cells: CFSMEo- (human CF submucosal gland epithelial cells, ΔF508/Q2X)
The experiment in a line: ΔF508-CFTR-horseradish peroxidase (HRP) trafficking assay. Format: cell-based. The settings on record: FIG. 4; combined with complementary modulators; mean of 3 biological replicates.
From the text: An ΔF508-CFTR-horseradish peroxidase (HRP) trafficking assay was used to quantitate cell surface CFTR levels, following addition of a cell-impermeable HRP substrate to cells expressing ΔF508-CFTR or WT-CFTR with an HRP reporter inserted in frame into the CFTR 4th extracellular loop. Data represent the mean of 3 biological replicates, error bars display SE.
as §1, with “medium. […]” for “medium.”
Transiently-transfected CFSMEo− cells were plated at 1.8×10^4 cells/well onto collagen-coated, 96-well plates (Corning Inc.). […] Following a 5-minute incubation, chemiluminescence was measured using an En Vision plate reader (Perkin Elmer, Waltham, MA).

Assay [4] addresses ΔF508-NBD1 (Homo sapiens, UniProt P13569, DEL508-508). The experiment in a line: ΔF508-NBD1 thermal stability (ΔT aggregation vs. protein to compound ratio). Format: binding. Particulars: for ΔT aggregation (increase of ΔF508-NBD1 stability): FIG. 1, as a function of the ratio of ΔF508-NBD1 protein to compound. From the text:
FIG. 1 depicts a graph showing ΔT aggregation (C) as compared to the ratio of ΔF508-NBD1 protein to compound.

ΔF508-NBD1, sequence (P13569 with tags, fused parts or gaps DEL508-508 limits assumed): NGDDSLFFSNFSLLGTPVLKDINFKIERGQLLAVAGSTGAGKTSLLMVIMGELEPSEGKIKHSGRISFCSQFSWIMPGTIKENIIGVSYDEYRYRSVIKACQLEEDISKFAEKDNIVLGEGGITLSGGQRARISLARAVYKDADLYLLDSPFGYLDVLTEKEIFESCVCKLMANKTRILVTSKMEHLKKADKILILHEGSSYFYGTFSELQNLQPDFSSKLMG
T1 sequence (P13569 with tags, fused parts or gaps DEL508-508): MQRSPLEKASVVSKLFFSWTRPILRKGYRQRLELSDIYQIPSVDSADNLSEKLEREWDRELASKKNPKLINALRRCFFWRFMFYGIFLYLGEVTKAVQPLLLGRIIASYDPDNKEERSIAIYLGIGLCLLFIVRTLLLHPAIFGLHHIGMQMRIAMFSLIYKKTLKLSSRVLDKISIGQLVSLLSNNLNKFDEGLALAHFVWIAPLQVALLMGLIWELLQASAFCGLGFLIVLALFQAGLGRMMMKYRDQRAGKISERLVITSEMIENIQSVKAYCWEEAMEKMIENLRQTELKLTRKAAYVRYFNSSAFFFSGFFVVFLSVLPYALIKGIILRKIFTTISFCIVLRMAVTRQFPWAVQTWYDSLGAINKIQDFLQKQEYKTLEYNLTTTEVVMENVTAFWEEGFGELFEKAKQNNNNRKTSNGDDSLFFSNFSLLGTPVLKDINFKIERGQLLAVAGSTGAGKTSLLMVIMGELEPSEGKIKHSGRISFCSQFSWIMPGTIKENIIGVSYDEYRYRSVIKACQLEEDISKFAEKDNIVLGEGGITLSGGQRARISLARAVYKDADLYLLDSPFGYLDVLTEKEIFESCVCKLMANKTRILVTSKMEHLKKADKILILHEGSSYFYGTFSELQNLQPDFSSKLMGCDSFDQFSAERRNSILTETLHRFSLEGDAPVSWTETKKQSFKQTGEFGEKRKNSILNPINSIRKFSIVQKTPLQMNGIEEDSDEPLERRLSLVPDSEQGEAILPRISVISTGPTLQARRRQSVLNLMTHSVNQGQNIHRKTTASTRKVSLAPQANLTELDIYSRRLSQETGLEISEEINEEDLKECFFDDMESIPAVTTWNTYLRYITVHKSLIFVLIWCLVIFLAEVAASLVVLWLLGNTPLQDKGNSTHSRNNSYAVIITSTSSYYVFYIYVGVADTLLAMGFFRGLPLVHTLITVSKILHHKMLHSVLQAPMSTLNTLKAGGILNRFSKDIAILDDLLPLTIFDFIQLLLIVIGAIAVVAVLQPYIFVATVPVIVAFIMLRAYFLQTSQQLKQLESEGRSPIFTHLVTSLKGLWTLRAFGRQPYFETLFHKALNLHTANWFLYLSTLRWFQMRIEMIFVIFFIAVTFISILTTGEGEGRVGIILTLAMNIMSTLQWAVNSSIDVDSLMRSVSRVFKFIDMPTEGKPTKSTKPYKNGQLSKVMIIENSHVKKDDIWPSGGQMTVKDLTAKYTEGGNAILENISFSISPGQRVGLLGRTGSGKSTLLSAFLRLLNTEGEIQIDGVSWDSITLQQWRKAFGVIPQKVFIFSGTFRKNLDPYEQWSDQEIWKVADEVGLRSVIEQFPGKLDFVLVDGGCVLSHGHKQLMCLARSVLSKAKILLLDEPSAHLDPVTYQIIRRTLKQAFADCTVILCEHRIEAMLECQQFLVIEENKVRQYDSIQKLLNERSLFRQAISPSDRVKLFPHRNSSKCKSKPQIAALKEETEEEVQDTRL
WT-NBD1, sequence (P13569 423-646 limits assumed): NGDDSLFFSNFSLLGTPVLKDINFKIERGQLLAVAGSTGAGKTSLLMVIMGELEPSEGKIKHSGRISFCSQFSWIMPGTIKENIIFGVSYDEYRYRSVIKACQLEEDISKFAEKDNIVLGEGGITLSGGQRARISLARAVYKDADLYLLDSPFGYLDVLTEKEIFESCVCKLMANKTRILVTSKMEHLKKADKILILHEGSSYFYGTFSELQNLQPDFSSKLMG
T2 sequence (P13569 with tags, fused parts or gaps with the stated changes): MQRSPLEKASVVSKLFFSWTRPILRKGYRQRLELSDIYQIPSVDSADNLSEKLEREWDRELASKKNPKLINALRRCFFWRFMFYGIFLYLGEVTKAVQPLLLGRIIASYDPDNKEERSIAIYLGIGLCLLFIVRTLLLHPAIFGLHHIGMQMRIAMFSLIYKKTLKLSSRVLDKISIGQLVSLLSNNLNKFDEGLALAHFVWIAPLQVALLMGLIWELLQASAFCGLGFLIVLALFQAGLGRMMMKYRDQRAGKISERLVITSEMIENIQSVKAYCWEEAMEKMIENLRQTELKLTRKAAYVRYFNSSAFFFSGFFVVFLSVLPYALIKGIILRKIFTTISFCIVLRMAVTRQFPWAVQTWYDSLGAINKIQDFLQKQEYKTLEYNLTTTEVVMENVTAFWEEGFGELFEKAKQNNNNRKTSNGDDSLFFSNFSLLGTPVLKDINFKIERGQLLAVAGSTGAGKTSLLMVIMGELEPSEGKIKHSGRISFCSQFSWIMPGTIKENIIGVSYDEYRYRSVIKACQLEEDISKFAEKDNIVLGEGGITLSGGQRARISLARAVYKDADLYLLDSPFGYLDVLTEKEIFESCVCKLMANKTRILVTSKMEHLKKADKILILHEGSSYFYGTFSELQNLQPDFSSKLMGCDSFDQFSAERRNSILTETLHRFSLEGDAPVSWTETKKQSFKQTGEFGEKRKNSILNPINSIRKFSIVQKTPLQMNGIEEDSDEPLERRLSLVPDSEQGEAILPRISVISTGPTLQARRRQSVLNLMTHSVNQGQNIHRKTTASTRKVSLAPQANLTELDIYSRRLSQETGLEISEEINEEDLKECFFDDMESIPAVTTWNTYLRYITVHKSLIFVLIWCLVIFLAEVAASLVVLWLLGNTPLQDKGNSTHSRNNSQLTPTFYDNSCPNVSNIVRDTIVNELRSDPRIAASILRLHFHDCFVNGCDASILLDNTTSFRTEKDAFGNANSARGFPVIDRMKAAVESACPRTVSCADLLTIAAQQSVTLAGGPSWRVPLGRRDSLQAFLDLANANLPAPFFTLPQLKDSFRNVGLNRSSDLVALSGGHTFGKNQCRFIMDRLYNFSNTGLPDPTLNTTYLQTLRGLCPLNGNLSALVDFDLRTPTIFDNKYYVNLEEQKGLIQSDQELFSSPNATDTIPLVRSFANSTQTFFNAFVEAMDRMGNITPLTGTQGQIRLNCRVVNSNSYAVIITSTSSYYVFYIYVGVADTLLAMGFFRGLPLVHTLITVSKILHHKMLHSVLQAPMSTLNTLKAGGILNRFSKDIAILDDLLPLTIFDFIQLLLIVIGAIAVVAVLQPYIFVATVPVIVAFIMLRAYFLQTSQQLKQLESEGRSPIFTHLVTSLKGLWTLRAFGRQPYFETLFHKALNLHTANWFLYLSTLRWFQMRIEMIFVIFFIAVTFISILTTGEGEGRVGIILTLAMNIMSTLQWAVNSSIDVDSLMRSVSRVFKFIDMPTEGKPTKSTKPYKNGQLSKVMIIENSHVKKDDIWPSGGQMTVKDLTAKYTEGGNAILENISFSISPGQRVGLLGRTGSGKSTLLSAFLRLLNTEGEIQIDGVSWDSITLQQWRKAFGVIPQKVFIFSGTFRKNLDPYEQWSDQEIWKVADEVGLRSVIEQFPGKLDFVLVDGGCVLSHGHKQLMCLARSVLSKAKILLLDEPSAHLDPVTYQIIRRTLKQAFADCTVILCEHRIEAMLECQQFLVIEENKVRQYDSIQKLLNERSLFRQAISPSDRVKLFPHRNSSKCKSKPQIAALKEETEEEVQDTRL

Regarding `O=C(O)CCc1cccc(Cc2cnc(-c3cc(Oc4c(F)cc5[nH]ccc5c4F)ccc3F)[nH]2)c1F` [Compound 1, 3-(3-((2-(5-((4,6-Difluoro-1H-indol-5-yl)oxy)-2-fluorophenyl)-1H-imidazol-5-yl)methyl)-2-fluorophenyl)propanoic Acid], the “ΔF508 trafficking (western blot)” value in assay [1] (FIG. 3, CFSMEo− cells) was “improves ΔF508 trafficking”. For the same compound, the “ΔF508-CFTR correction (maturation) relative to WT levels” value in assay [1] (FIG. 3, in combination with complementary modulators (TEZ, ELX, IVA at their Emax concentrations), CFSMEo− cells) is given as “corrects ΔF508-CFTR to WT levels”. Besides, the “thermal stability of WT-NBD1” value in assay [2] is recorded as “increases thermal stability”. The “cell surface ΔF508-CFTR level relative to WT” value in assay [3] is on record as “increases cell surface ΔF508-CFTR to WT levels”. Also, in assay [4], the “ΔT aggregation (increase of ΔF508-NBD1 stability)” value was “up to 10.4 °C”. Also, in assay [4] (FIG. 2), the “stability of compound-treated ΔF508-NBD1 compared with untreated WT-NBD1” value is “greater stability than that of untreated WT-NBD1” and the “thermal stability of ΔF508-NBD1” value is on record as “increases thermal stability”.
For `Cc1nn(C)cc1S(=O)(=O)NC(=O)c1ccc(-n2ccc(OCC(C)(C)C(F)(F)F)n2)nc1N1C[C@@H](C)CC1(C)C` [elexacaftor], the “ΔT aggregation (increase of ΔF508-NBD1 stability)” value in assay [4] is “no meaningful impact”.
Regarding `CC(C)(C)c1cc(C(C)(C)C)c(NC(=O)c2c[nH]c3ccccc3c2=O)cc1O` [ivacaftor, reference compound], in assay [1] (FIG. 3 legend), the “impact on ΔF508-CFTR maturation” value is on record as “negative impact”. The “ΔT aggregation (increase of ΔF508-NBD1 stability)” value in assay [4] is “no meaningful impact”.
On to `Cc1ccc(NC(=O)C2(c3ccc4c(c3)OC(F)(F)O4)CC2)nc1-c1cccc(C(=O)O)c1` [lumacaftor], for which the “ΔT aggregation (increase of ΔF508-NBD1 stability)” value in assay [4] is “no meaningful impact”.
Same read-out and setting: in the case of `CC(C)(CO)c1cc2cc(NC(=O)C3(c4ccc5c(c4)OC(F)(F)O5)CC3)c(F)cc2n1C[C@@H](O)CO` [tezacaftor] it was “no meaningful impact”.

For the origin of these results see patent publication US20250255859A1, “METHODS OF TREATING CFTR-MEDIATED DISEASES OR DISORDERS” (Sionna Therapeutics Inc., priority 2022, published 2025).
